Measurements: patent US6458978B1, “Fluorous phosphines and process for their preparation” (Atofina Vlissingen B.V., priority 1998, dated 2002)

Legend:
[1] = Hydrogenation of 1-octene under single phase conditions in α,α,α-trifluorotoluene; settings: [Rh] 4.0 mM, [1-octene] 1.46 M; T = 80° C., p(H2) = 1 bar, α,α,α-trifluorotoluene
Method: To be able to directly compare the activities of fluorous derivatives H{1,6} and H{1,8} with non-fluorous [P(C6H4-4-SiMe3)3]3RhCl (H{0}) and the conventional Wilkinson catalyst (PPh3)3RhCl, homogeneous hydrogenation of 1-octene were carried out under single phase conditions in the hybrid solvent α,α,α-trifluorotoluene at atmospheric H2 pressures. Highest rates of hydrogen uptake (14.2 mol.L^−1.h^−1) were measured for 1c at relatively high rhodium and olefine concentrations (entry 2, Table 7). Under these conditions a zero-order dependence in [1-octene] was found up to ca 80% conversion resulting in a linear conversion versus time plot. In all other experiments ([Rh]=4.0-8.0 mM, [1-octene]0=1.46 M) rates of hydrogen uptake were lower (<11 mol.L^−1.h^−1) and conversion versus time plots corresponded to a rate law -d[1-octene]/dt=kobs.[1-octene] for >98% conversion allowing to evaluate catalyst activity in terms of the observed first order rate constant kobs. Since for these experiments the rates of dihydrogen uptake were well below the maximum value obtained in entry 2, diffusion limitation of H2 can be excluded. In addition to kobs, turn over frequencies (TOF in mol.mol^−1.h^−1) were derived from the tangent of a 4^thorder polynomal fit to conversion versus time plots at 25% conversion and serve as a measure of catalyst activity independent of any assumed kinetic relationship with substrate.
Catalytic reactions were carried out under single phase conditions in CF3C6H5 at 80° C. under 1 bar of hydrogen pressure. After >90% conversion (monitored by the H2 uptake) volatiles were distilled off and analyzed by GC. Activities (TOF) were determined for 25% conversion.

[2] = hydrogenation of 1-heptene in benzene; cited from earlier work
[3] = c-C6F11CF3/toluene at 27° C.; cited from earlier work

Compound	TOF(25%), turn over frequency at 25% conversion [1]	TON (mole of olefin/mole of Rh) [1]	conversion [1]	kobs (first order rate constant) [1]	TOF [2]	Partition coefficient P [3]
[Cl-].[Rh].c1ccc(P(c2ccccc2)c2ccccc2)cc1.c1ccc(P(c2ccccc2)c2ccccc2)cc1.c1ccc(P(c2ccccc2)c2ccccc2)cc1 [(PPh3)3RhCl]	960 h⁻¹	358	98%	4.0(1) h^−1	150 to 600 h⁻¹	–
FC(F)(F)C(F)(F)C(F)(F)C(F)(F)C(F)(F)C(F)(F)CCP(CCC(F)(F)C(F)(F)C(F)(F)C(F)(F)C(F)(F)C(F)(F)F)CCC(F)(F)C(F)(F)C(F)(F)C(F)(F)C(F)(F)C(F)(F)F [P [(CH2)2(CF2)nCF3)3]3 (n=5)]	–	–	–	–	–	82
FC(F)(F)C(F)(F)C(F)(F)C(F)(F)C(F)(F)C(F)(F)CCP(CCC(F)(F)C(F)(F)C(F)(F)C(F)(F)C(F)(F)C(F)(F)F)CCC(F)(F)C(F)(F)C(F)(F)C(F)(F)C(F)(F)C(F)(F)F [P [(CH2)2(CF2)nCF3)3]3 (n=7)]	–	–	–	–	–	332
